Assay [1] has as its target T1, Gastrin/cholecystokinin type B receptor (Mus musculus, UniProt P56481).
T1 sequence (P56481 whole entry): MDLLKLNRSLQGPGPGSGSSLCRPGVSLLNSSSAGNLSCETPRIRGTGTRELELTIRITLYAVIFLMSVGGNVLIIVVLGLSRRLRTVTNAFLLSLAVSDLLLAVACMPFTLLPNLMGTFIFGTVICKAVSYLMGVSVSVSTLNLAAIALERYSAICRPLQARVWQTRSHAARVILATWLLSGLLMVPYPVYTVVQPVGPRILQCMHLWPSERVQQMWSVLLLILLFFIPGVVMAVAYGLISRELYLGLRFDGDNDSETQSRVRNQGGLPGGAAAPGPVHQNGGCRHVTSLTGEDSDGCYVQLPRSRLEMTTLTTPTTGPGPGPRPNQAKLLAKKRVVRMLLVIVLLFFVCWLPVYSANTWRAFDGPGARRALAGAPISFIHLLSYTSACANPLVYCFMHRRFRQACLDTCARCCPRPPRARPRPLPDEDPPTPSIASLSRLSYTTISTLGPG
Description: Concentration of compound required to inhibit binding of [125I]J-BH-CCK-8 radioligand to CCKB in mouse fore brain membranes. Format: cell membranes, Membrane.

Assay [2] concerns the target T2, Cholecystokinin receptor type A (Mus musculus, UniProt O08786).
T2 sequence (O08786 whole entry): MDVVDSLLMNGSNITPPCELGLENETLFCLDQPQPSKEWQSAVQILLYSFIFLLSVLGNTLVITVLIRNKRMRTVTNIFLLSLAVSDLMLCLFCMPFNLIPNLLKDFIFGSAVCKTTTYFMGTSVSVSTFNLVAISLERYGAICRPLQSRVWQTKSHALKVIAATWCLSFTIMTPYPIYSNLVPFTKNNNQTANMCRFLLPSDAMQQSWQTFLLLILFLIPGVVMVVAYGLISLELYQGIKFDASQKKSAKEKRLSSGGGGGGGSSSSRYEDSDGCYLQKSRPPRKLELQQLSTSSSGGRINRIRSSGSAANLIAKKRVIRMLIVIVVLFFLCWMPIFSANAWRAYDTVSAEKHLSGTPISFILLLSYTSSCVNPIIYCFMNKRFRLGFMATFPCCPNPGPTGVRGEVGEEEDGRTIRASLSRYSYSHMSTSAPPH
Description: Concentration of compound required to inhibit binding of [125I]J-BH-CCK-8 radioligand to CCKA in mouse pancreatic membranes. The format is cell membranes.

Drawing on ChEMBL document CHEMBL1126337, “Cholecystokinin analogues: The ergopeptine alkaloids as models of the active conformation of CCK” (Bioorg Med Chem Lett, 1992), this text covers IC50 for 5 compounds.

Peptide text beside a SMILES is read from it. * marks the point of attachment. NHPhenethyl = c1ccc(CCN*)cc1; Boc = CC(C)(C)OC(=O)* A value given as a limit tells only on which side of the number the result lay.

Broadly, the IC50 is the point on the concentration scale where inhibition reaches its midpoint. A higher IC50 goes with weaker potency in that assay. `C[C@H](NC(=O)C1C=C2c3cccc4[nH]cc(c34)CC2N(C)C1)C(=O)NCCc1ccccc1` (stereo not given in full): the figures for the IC50 in assay [1] and in assay [2] were more than 80 µM and 12 µM, respectively.

As to `CC(C)C[C@H](NC(=O)[C@H](Cc1c[nH]c2ccccc12)NC(=O)OC(C)(C)C)C(=O)N[C@@H](CC(=O)O)C(=O)NCCc1ccccc1` (Boc-Trp-Leu-Asp-NHPhenethyl), the half-maximal inhibitory concentration (IC50) in assay [1] turned out to be 0.35 µM; in assay [2], 3.5 µM.

For the compound `CC(C)C[C@H]1C(=O)N2CCC[C@H]2[C@]2(O)O[C@](NC(=O)[C@@H]3C=C4c5cccc6[nH]cc(c56)C[C@H]4N(C)C3)(C(C)C)C(=O)N12` [ERGOCRYPTINE], the IC50 in assay [1] and in assay [2] was more than 80 µM each time.

In the case of `CN1C[C@H](C(=O)N[C@]2(C)O[C@@]3(O)[C@@H]4CCCN4C(=O)[C@H](Cc4ccccc4)N3C2=O)C[C@@H]2c3cccc4[nH]cc(c34)C[C@H]21` [DIHYDROERGOTAMINE], the figures for the 50% inhibitory concentration (IC50) in assay [1] and in assay [2] were 23 µM and more than 80 µM, respectively.

As for `CN1C[C@H](C(=O)N[C@]2(C)O[C@@]3(O)[C@@H]4CCCN4C(=O)[C@H](Cc4ccccc4)N3C2=O)C=C2c3cccc4[nH]cc(c34)C[C@H]21` [ERGOTAMINE], the 50% inhibitory concentration (IC50) stood at 17 µM in assay [1] and 34 µM in assay [2].
